The first test deals with 5-hydroxytryptamine receptor 2A (Homo sapiens, UniProt P28223). Nature of the test: Antagonist activity at human 5HT2A receptor expressed in HEK cells assessed as inhibition of intracellular calcium accumulation by aequorin assay. Type of test: functional, cell-based, HEK293.
Chain of 5-hydroxytryptamine receptor 2A (P28223 whole entry): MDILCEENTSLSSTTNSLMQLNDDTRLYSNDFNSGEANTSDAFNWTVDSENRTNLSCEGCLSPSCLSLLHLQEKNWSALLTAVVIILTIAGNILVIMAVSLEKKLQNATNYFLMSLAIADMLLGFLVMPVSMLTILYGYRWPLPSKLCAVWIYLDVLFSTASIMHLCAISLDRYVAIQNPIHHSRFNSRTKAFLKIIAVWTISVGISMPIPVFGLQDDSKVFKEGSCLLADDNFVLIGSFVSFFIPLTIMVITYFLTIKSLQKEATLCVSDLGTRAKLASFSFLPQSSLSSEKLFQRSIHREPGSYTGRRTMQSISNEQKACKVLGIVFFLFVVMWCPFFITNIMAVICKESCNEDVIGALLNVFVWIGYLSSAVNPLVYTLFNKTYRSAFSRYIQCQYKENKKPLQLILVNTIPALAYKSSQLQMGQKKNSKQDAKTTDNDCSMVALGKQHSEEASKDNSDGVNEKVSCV
Chain of Histamine H1 receptor (P35367 whole entry): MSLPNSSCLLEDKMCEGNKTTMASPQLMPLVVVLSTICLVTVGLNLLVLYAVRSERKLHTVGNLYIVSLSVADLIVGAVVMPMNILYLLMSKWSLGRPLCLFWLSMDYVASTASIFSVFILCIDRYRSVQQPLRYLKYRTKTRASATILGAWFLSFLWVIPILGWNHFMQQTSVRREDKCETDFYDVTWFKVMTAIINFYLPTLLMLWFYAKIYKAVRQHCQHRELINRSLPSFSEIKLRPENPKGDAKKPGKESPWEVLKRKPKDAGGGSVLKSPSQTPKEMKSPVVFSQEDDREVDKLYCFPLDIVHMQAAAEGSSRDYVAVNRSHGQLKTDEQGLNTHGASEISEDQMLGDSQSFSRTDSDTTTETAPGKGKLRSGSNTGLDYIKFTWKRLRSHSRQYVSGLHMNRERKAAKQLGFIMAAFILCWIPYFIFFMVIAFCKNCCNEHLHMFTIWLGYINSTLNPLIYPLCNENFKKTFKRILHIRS
Consider `O=C(O)C1CCN(C2CCC3(Cc4ccccc4Oc4ccccc43)C2)CC1` (centres undefined), for which the Ki is 316 nM.

On to `O=C(O)C1CN(C2CC[C@]3(Cc4ccccc4Cc4ccccc43)C2)CCN1` (some centres undefined), for which the inhibition constant Ki is 316 nM.

On to `O=C(O)C1CN(C2CC[C@]3(Cc4ccccc4Cc4ccccc43)C2)CCO1` (some centres undefined), for which the Ki was 100 nM.

Take `O=C(O)CCNC1CC[C@]2(Cc3ccccc3Cc3ccccc32)C1` (some centres undefined): the Ki is 158 nM.

On to `O=C(O)C1=CCN(C2CCC3(Cc4ccccc4Cc4ccccc43)C2)CC1` (centres undefined), for which the inhibitory constant (Ki) is 79.4 nM.

With `O=C(O)CC1CCN(C2CCC3(Cc4ccccc4Cc4ccccc43)C2)CC1` (centres undefined), the Ki was 631 nM.

Take `O=C(O)C1=CCCN(C2CCC3(Cc4cc(F)ccc4Cc4ccccc43)C2)C1` (centres undefined): the inhibition constant Ki was > 759 nM.

As to `O=C(O)[C@@H]1CCCN(C2CCC3(Cc4ccccc4Oc4ccccc43)C2)C1` (some centres undefined), the Ki was 100 nM.

On to `O=C(O)C1=CCCN(C2CCC3(C2)C(=O)c2ccccc2Cc2ccccc23)C1` (centres undefined), for which the inhibition constant (Ki) is > 2000 nM.

With `CC1(C(=O)O)CCN(C2CCC3(Cc4ccccc4Cc4ccccc43)C2)CC1` (centres undefined), the inhibition constant (Ki) was 39.8 nM.

Take `O=C(O)C1=CCCN(C2CCC3(Cc4ccccc4Oc4ccccc43)C2)C1` (centres undefined): the Ki is 398 nM.

Take `O=C(O)[C@@H]1CCCN(C2CC[C@]3(Cc4ccccc4Cc4ccccc43)C2)C1` (some centres undefined): the inhibitory constant (Ki) is 63.1 nM.

As for `O=C(O)C1(O)CCN(C2CCC3(Cc4ccccc4Cc4ccccc43)C2)CC1` (centres undefined), the inhibition constant (Ki) is 100 nM.

Consider `O=C(O)C=C1CN(C2CCC3(Cc4ccccc4Cc4ccccc43)C2)C1` (centres undefined), for which the Ki was 50.1 nM.

For a further test, the target named is 5-hydroxytryptamine receptor 2B (Homo sapiens, UniProt P41595). As to the kind of experiment: Antagonist activity at human 5HT2B receptor expressed in human SH-SY5Y cells by FLIPR assay.
Chain of 5-hydroxytryptamine receptor 2B (P41595 whole entry): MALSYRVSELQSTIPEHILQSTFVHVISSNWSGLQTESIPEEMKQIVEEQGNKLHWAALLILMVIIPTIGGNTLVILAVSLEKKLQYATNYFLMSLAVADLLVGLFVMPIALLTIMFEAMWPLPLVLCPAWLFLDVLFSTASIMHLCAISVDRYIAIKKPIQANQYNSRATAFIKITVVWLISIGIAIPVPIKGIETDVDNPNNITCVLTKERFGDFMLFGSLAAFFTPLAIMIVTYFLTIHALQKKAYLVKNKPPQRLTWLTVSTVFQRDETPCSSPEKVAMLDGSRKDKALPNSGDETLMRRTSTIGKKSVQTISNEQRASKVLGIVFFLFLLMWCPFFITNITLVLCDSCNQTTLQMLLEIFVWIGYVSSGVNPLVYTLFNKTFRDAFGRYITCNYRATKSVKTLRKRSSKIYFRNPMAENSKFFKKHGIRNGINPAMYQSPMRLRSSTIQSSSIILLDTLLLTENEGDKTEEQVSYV
As for `O=C(O)C1CCN(C2CCC3(Cc4ccccc4Oc4ccccc43)C2)CC1` (centres undefined), the Ki was 1580 nM.

Regarding `O=C(O)C1CN(C2CC[C@]3(Cc4ccccc4Cc4ccccc43)C2)CCN1` (some centres undefined), the Ki is 1260 nM.

With `O=C(O)C1CN(C2CC[C@]3(Cc4ccccc4Cc4ccccc43)C2)CCO1` (some centres undefined), the inhibition constant Ki was > 2000 nM.

For `O=C(O)CCNC1CC[C@]2(Cc3ccccc3Cc3ccccc32)C1` (some centres undefined), the inhibition constant Ki is > 2000 nM.

Take `O=C(O)C1=CCN(C2CCC3(Cc4ccccc4Cc4ccccc43)C2)CC1` (centres undefined): the inhibitory constant (Ki) is > 2000 nM.

In the case of `O=C(O)CC1CCN(C2CCC3(Cc4ccccc4Cc4ccccc43)C2)CC1` (centres undefined), the Ki is 1000 nM.

On to `O=C(O)C1=CCCN(C2CCC3(Cc4cc(F)ccc4Cc4ccccc43)C2)C1` (centres undefined), for which the Ki was > 2000 nM.

For `O=C(O)[C@@H]1CCCN(C2CCC3(Cc4ccccc4Oc4ccccc43)C2)C1` (some centres undefined), the inhibition constant (Ki) is > 2000 nM.

For the molecule `CC1(C(=O)O)CCN(C2CCC3(Cc4ccccc4Cc4ccccc43)C2)CC1` (centres undefined), the affinity, expressed as Ki, was 3.16 nM.

For the molecule `O=C(O)C1=CCCN(C2CCC3(Cc4ccccc4Oc4ccccc43)C2)C1` (centres undefined), the Ki was > 2000 nM.

`O=C(O)[C@@H]1CCCN(C2CC[C@]3(Cc4ccccc4Cc4ccccc43)C2)C1` (some centres undefined) gave an inhibition constant (Ki) of 1260 nM.

In turn, `O=C(O)C1(O)CCN(C2CCC3(Cc4ccccc4Cc4ccccc43)C2)CC1` (centres undefined) gave a Ki of 251 nM.

`O=C(O)C=C1CN(C2CCC3(Cc4ccccc4Cc4ccccc43)C2)C1` (centres undefined) had an inhibition constant (Ki) of 251 nM.

For another test, the target named is Voltage-gated inwardly rectifying potassium channel KCNH2 (Homo sapiens, UniProt Q12809). As to the kind of experiment: Displacement of [3H]dofetilide from human ERG by scintillation proximity assay. Background: Loss of bound radioactivity is the signal in a displacement assay; it reports binding, not function.
Chain of Voltage-gated inwardly rectifying potassium channel KCNH2 (Q12809 whole entry): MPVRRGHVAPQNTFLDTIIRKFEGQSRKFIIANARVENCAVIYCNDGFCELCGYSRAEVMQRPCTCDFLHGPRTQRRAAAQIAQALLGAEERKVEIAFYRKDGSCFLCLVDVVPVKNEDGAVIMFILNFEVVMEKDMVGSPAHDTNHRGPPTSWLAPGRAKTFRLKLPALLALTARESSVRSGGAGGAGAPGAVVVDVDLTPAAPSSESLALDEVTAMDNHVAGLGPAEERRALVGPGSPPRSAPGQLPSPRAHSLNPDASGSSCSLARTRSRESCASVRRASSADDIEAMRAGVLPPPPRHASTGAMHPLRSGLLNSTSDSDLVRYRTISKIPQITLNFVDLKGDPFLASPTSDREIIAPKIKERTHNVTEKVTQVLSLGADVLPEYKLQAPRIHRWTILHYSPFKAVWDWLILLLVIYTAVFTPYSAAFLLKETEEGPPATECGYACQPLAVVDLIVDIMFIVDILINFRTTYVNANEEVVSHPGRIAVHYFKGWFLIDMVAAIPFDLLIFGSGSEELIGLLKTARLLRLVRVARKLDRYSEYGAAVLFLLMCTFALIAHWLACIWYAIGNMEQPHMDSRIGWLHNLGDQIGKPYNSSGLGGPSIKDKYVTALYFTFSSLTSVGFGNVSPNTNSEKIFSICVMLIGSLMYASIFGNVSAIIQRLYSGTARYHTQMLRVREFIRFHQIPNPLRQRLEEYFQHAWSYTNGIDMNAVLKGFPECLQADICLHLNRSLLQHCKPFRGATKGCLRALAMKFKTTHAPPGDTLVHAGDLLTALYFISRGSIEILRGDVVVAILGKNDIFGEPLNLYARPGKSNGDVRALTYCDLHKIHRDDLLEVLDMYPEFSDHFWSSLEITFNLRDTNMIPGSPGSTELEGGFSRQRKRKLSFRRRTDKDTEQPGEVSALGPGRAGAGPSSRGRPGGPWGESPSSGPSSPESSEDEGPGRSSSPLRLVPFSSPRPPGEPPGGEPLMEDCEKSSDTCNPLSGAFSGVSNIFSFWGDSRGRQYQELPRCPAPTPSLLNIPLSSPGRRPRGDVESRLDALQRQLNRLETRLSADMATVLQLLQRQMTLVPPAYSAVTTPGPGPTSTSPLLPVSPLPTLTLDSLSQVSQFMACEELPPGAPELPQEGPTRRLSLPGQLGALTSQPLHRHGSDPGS
Take `O=C(O)CCNC1CC[C@]2(Cc3ccccc3Cc3ccccc32)C1` (some centres undefined): the IC50 is 63100 nM.

A further test has as its target T1, 5-hydroxytryptamine receptor 2C (Homo sapiens, UniProt P28335).
T1 sequence (P28335 whole entry): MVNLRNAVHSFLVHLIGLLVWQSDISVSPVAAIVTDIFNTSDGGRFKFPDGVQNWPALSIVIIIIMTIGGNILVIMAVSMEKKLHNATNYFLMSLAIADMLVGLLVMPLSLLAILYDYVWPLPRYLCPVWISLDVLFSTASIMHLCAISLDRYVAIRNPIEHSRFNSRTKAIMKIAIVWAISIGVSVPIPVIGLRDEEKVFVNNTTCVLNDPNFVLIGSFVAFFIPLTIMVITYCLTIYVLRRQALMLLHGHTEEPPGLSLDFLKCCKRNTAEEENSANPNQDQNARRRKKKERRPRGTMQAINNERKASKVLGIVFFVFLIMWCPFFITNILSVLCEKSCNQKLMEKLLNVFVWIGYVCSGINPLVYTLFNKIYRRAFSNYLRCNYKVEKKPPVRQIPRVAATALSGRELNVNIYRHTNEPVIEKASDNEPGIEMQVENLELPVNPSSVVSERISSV
As to the kind of experiment: Antagonist activity at human 5HT2C receptor expressed in human SH-SY5Y cells by FLIPR assay. Type of test: functional, cell-based.
In turn, `O=C(O)C1CN(C2CC[C@]3(Cc4ccccc4Cc4ccccc43)C2)CCN1` (some centres undefined) gave an inhibition constant (Ki) of 200 nM.

With `O=C(O)C1CN(C2CC[C@]3(Cc4ccccc4Cc4ccccc43)C2)CCO1` (some centres undefined), the affinity, expressed as Ki, was 316 nM.

For `O=C(O)CCNC1CC[C@]2(Cc3ccccc3Cc3ccccc32)C1` (some centres undefined), affinity was put at a Ki of 100 nM.

For `O=C(O)C1=CCN(C2CCC3(Cc4ccccc4Cc4ccccc43)C2)CC1` (centres undefined), the inhibition constant Ki is 200 nM.

Regarding `O=C(O)CC1CCN(C2CCC3(Cc4ccccc4Cc4ccccc43)C2)CC1` (centres undefined), the inhibition constant Ki was > 2510 nM.

`O=C(O)C1=CCCN(C2CCC3(Cc4cc(F)ccc4Cc4ccccc43)C2)C1` (centres undefined) gave a Ki of 316 nM.

`O=C(O)C1=CCCN(C2CCC3(C2)C(=O)c2ccccc2Cc2ccccc23)C1` (centres undefined): the inhibition constant (Ki) was > 2000 nM.

As to `CC1(C(=O)O)CCN(C2CCC3(Cc4ccccc4Cc4ccccc43)C2)CC1` (centres undefined), affinity was put at a Ki of 15.8 nM.

In the case of `O=C(O)C1=CCCN(C2CCC3(Cc4ccccc4Oc4ccccc43)C2)C1` (centres undefined), the Ki was > 2000 nM.

For `O=C(O)[C@@H]1CCCN(C2CC[C@]3(Cc4ccccc4Cc4ccccc43)C2)C1` (some centres undefined), the affinity, expressed as Ki, was 31.6 nM.

As for `O=C(O)C1(O)CCN(C2CCC3(Cc4ccccc4Cc4ccccc43)C2)CC1` (centres undefined), the inhibition constant (Ki) is 126 nM.

Molecule `O=C(O)C=C1CN(C2CCC3(Cc4ccccc4Cc4ccccc43)C2)C1` (centres undefined) showed an inhibition constant Ki of 251 nM.

The next test has as its target Histamine H1 receptor (Homo sapiens, UniProt P35367). Nature of the test: Antagonist activity against human histamine H1 receptor expressed in CHO cells by FLIPR assay. Type of test: functional, cell-based.
For `O=C(O)C1CCN(C2CCC3(Cc4ccccc4Oc4ccccc43)C2)CC1` (centres undefined), affinity was put at a Ki of 79.4 nM.

In turn, `O=C(O)C1CN(C2CC[C@]3(Cc4ccccc4Cc4ccccc43)C2)CCN1` (some centres undefined) showed an inhibitory constant (Ki) of 100 nM.

In turn, `O=C(O)C1CN(C2CC[C@]3(Cc4ccccc4Cc4ccccc43)C2)CCO1` (some centres undefined) had a Ki of 63.1 nM.

`O=C(O)CCNC1CC[C@]2(Cc3ccccc3Cc3ccccc32)C1` (some centres undefined) showed a Ki of 10 nM.

`O=C(O)C1=CCN(C2CCC3(Cc4ccccc4Cc4ccccc43)C2)CC1` (centres undefined) gave a Ki of 39.8 nM.

For the molecule `O=C(O)CC1CCN(C2CCC3(Cc4ccccc4Cc4ccccc43)C2)CC1` (centres undefined), the inhibition constant Ki was 25.1 nM.

For the molecule `O=C(O)C1=CCCN(C2CCC3(Cc4cc(F)ccc4Cc4ccccc43)C2)C1` (centres undefined), the affinity, expressed as Ki, was 39.8 nM.

As to `O=C(O)[C@@H]1CCCN(C2CCC3(Cc4ccccc4Oc4ccccc43)C2)C1` (some centres undefined), the inhibition constant Ki is 126 nM.

`O=C(O)C1=CCCN(C2CCC3(C2)C(=O)c2ccccc2Cc2ccccc23)C1` (centres undefined) showed a Ki of 79.4 nM.

The molecule `CC1(C(=O)O)CCN(C2CCC3(Cc4ccccc4Cc4ccccc43)C2)CC1` (centres undefined) gave a Ki of 50.1 nM.

`O=C(O)C1=CCCN(C2CCC3(Cc4ccccc4Oc4ccccc43)C2)C1` (centres undefined) showed a Ki of 100 nM.

On to `O=C(O)[C@@H]1CCCN(C2CC[C@]3(Cc4ccccc4Cc4ccccc43)C2)C1` (some centres undefined), for which affinity was put at a Ki of 20 nM.

`O=C(O)C1(O)CCN(C2CCC3(Cc4ccccc4Cc4ccccc43)C2)CC1` (centres undefined) gave a Ki of 50.1 nM.

`O=C(O)C=C1CN(C2CCC3(Cc4ccccc4Cc4ccccc43)C2)C1` (centres undefined) showed an inhibitory constant (Ki) of 200 nM.

The Ki is the dissociation constant of the complex between target and ligand, obtained from inhibition or displacement. In general, IC50 refers to the midpoint of a concentration-inhibition curve.
